One assay deals with T1, human caspase-2 (Homo sapiens, UniProt P42575).
T1 construct: inferred from pET23b, XhoI reverse primer without stop codon, Ni-NTA purification) (C); made in house; host or cells: E. coli BL21(DE3)
T1 sequence (P42575 170-452): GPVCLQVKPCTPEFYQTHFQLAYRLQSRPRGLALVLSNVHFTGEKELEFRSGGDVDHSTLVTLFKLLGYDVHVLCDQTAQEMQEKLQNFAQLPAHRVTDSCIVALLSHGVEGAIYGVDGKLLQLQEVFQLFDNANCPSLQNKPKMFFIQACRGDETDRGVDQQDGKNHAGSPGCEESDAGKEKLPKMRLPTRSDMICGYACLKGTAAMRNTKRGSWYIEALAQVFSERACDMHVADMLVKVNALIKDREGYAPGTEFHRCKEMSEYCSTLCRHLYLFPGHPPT
As to the kind of experiment: Fluorescent enzyme assay, Casp2 (AFC substrate Z-VDVAD-AFC). It counts as biochemical. The following applies: for Ki (Casp3) / Ki (Casp2): selectivity Casp2 over Casp3. The source says: (§1) Human recombinant Casp1, 6, 7, and 9 were purchased from BioVision (Milpitas/CA, USA). AFC fluorogenic substrates and control peptides (AcYVAD-CHO, AcVDVAD-CHO, AcDEVD-CHO, AcVEID-CHO, and AcLEHD-CHO) were purchased from Bachem (Torrance/CA, USA). The pET23b vector encoding human caspase-3 was a gift of Dr. Michelle Arkin at University of California, San Francisco. Expression and purification of Casp3 was guided by previously described protocols (Denault J-B, Salvesen G S., Current Protocols in Protein Science, 2002, 30(1), 21.13. 1-21.13. 15). Briefly, the plasmid was transformed into E. coli Rosetta 2 pLyss DE3 cells that were cultured at 1 L scale in shake flasks. Five hours post induction with IPTG, cells were harvested through centrifugation (4000 g for 10 minutes at 4° C.), lysed by sonication, and centrifuged again for 30 minutes at 20000 g. Supernatant was resuspended in buffer (100 mM Tris pH 8.0, 500 mM NaCl). Purification was achieved by nickel-affinity chromatography followed by ion-exchange chromatography. Protein was diluted to 0.5 mg/mL and stored at −80° C. in 100 mM Tris, pH 8.0 supplemented with 10% glycerol. The typical yield for the expression, isolation, and purification was approximately 3 mg/L. The DNA encoding human caspase-2 (hCASP2, amino acids 170-452, free of the N-terminal caspase activation and recruitment domain) open reading frame (ORF) was amplified via polymerase chain reaction (PCR) from full-length hCASP2 cDNA (Origene, Rockville, MD; Cat #SC321316) using following primers: forward, 5′-[…]-3′; reverse, 5′-[…]-3′. The PCR fragment was then cloned into the pET23b vector (Millipore Sigma, Burlington, MA), and DNA sequence was verified by classic Sanger sequencing analyses. Site-directed mutageneses were carried out using a QuikChange II XL site-directed mutagenesis kit (Agilent Technologies, Santa Clara, CA; Cat #200522) according to the manufacturer's instruction. Expression of recombinant hCASP2 was induced using 150 μM isopropyl-β-D-thiogalactopyranoside (IPTG) (Promega, Madison, WI) in the BL21(DE3) E. coli strain (Millipore Sigma) at 16° C. for 14 hours while shaking at 250 rpm. Cells were then harvested via centrifugation at 6,000 g, 4° C. for 15 minutes, followed by lysis via sonication. Proteins were initially purified using HisPur Ni-NTA resin (Thermo Fisher Scientific, Waltham, MA) followed by metal chelating chromatography (5 mL HiTrap Chelating HP columns (GE Healthcare Life Sciences, Piscataway, NJ)). Further purification was carried out using anion exchange chromatography (5 mL HiTrap Q HP columns (GE Healthcare Life Sciences)) for hCASP2. Proteins were stored in 1× phosphate-buffered saline (pH 7.4) at 10 mg/mL (concentration determined using a BCA assay (Thermo Fisher Scientific)), −80° C. until further use.
(§2) KM values were determined experimentally to be the following: Casp1: 5.9 μM; Casp2: 37.1 μM; Casp3: 7.6 μM; Casp6: 14.5 μM; Casp7: 13.8 μM; Casp9: 149.1 μM. Enzymes were diluted in buffer: 100 mM MES (pH 6.5) for Casp2 and or 100 mM HEPES (pH 7.0) for all other caspases, plus 150 mM NaCl, 0.1% CHAPS, 1.5% sucrose, 10 mM DTT. Enzyme concentrations were 0.05 U/well for Casp1, 6, and 7; 0.5 U/well for Casp9, 20 nM/well for Casp2, and 2 nM/well for Casp3. Enzyme in buffer (19 μL) was added per well in a black 384-well Corning 4514 assay plate. Test compounds were serially diluted in dimethyl sulfoxide (DMSO) and plated in duplicate into a Corning 3656 transfer plate. Test compound was added to assay plates in 0.5 μL aliquots per well and mixed 10 times using a BiomekFX (Beckman Coulter). Compound and enzyme mixture was incubated at 37° C. for 5 minutes for aldehyde warheads and 45 minutes for cyano warheads. […]

In the next assay the target is T2, human caspase-3 (Homo sapiens, UniProt P42574).
T2 construct: made in house; host or cells: E. coli Rosetta 2 pLysS DE3
T2 sequence (P42574 29-277): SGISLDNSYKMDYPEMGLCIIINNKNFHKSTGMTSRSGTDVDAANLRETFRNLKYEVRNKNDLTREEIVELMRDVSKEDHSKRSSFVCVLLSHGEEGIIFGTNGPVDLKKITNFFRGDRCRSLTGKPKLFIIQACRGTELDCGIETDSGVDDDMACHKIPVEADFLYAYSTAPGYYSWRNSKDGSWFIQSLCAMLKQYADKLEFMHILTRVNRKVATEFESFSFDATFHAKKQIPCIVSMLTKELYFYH
As to the kind of experiment: Fluorescent enzyme assay, Casp3 (AFC substrate AcDEVD-AFC). In kind it is biochemical.
From the text: as §1, §2

The mark [1] stands for this setting: mean ± SEM of N independent experiments, each in duplicate or triplicate, read-out: pKi ± SEM Casp 2 (converted).
The mark [2] stands for this setting: mean ± SEM of N independent experiments, each in duplicate or triplicate, read-out: pKi ± SEM Casp 3 (converted).

Where two headings read alike, the source gives them in different places. *1 amine or outer side, *2 acyl side, *3 side chain or, on linkers, in order; H or OH if unused. Where a SMILES comes first, the peptide text is derived from it. [ ]: non-standard residue; d: D form. The star is where a group is joined. ξ: configuration not given here. X1 = Cc1ccc2c(c1)CCN([*:1])[C@@H]2C(=O)[*:2]; ξ(indoline-2-carboxyl) = O=C(O)C1Cc2ccccc2N1; ξTHIQ1CO(6-Me) = Cc1ccc2c(c1)CCNC2C(=O)O; X3 = O=C([C@@H]1Cc2ccccc2N1[*:1])[*:2]; Aad = N[C@@H](CCCC(=O)O)C(=O)O; Thr(3ξ) = CC(O)[C@H](N)C(=O)O; Tle = CC(C)(C)[C@H](N)C(=O)O; Bn = c1ccc(C*)cc1

As to `Cc1ccc2c(c1)CCN(C(=O)[C@@H](NC(=O)[C@H](CCCC(=O)O)NC(=O)C1Cc3ccccc3N1)C(C)C)[C@@H]2C(=O)N[C@H](C=O)CC(=O)O` (stereo partly drawn) [Compound 2, (S)-6-(((S)-1-((S)-1-(((S)-1-carboxy-3-oxopropan-2-yl)carbamoyl)-6-methyl-3,4-dihydroisoquinolin-2(1H)-yl)-3-methyl-1-oxobutan-2-yl)amino)-5-((S)-indoline-2-carboxamido)-6-oxohexanoic acid hydrotrifluoroacetate] (H-[ξ(indoline-2-carboxyl)][Aad]V[X1]D-aldehyde), at human caspase-2, the Ki was 0.0398 µM and the “Ki (Casp3) / Ki (Casp2)” value was 794. Also, at human caspase-3, the Ki is > 31.6 µM.
Consider `Cc1ccc2c(c1)CCN(C(=O)CNC(=O)CNC(=O)[C@@H]1Cc3ccccc3N1)[C@@H]2C(=O)N[C@H](C=O)CC(=O)O` [Compound 3, (S)-3-((S)-2-(((S)-indoline-2-carbonyl)glycylglycyl)-6-methyl-1,2,3,4-tetrahydroisoquinolin-1-carboxamido)-4-oxobutanoic acid hydrotrifluoroacetate], for which the Ki at human caspase-2 (setting [1]) and on human caspase-3 (setting [2]) was > 100 µM throughout.
On to `Cc1ccc2c(c1)CCN(C(=O)CCCCNC(=O)[C@@H]1Cc3ccccc3N1)[C@@H]2C(=O)N[C@H](C=O)CC(=O)O` [Compound 4, (S)-3-((S)-2-(5-((S)-indoline-2-carboxamido)pentanoyl)-6-methyl-1,2,3,4-tetrahydroisoquinoline-1-carboxamido)-4-oxobutanoic acid hydrotrifluoroacetate], for which the Ki on human caspase-2 (setting [1]) and on human caspase-3 (setting [2]) was > 100 µM each time.
As for `Cc1ccc2c(c1)CCN(C(=O)CNC(=O)[C@H](CCCC(=O)O)NC(=O)[C@@H]1Cc3ccccc3N1)[C@@H]2C(=O)N[C@H](C=O)CC(=O)O` [Compound 5, (S)-6-((2-((S)-1-(((S)-1-carboxy-3-oxopropan-2-yl)carbamoyl)-6-methyl-3,4-dihydroisoquinolin-2(1H)-yl)-2-oxoethyl)amino)-5-((S)-indoline-2-carboxamido)-6-oxohexanoic acid hydrotrifluoroacetate], at human caspase-2, the Ki is 0.017 µM and the “Ki (Casp3) / Ki (Casp2)” value was found to be 324. The molecule further showed a Ki at human caspase-3 of 5.5 µM.
For `Cc1ccc2c(c1)CCN(C(=O)[C@@H](NC(=O)[C@H](CCCC(=O)O)NC(=O)[C@@H]1Cc3ccccc3N1)C(C)OCc1ccccc1)C2C(=O)N[C@H](C=O)CC(=O)O` (stereo partly drawn) [Compound 6, (S)-6-(((2S,3S)-3-(benzyloxy)-1-((S)-1-(((S)-1-carboxy-3-oxopropan-2-yl)carbamoyl)-6-methyl-3,4-dihydroisoquinolin-2(1H)-yl)-1-oxobutan-2-yl)amino)-5-((S)-indoline-2-carboxamido)-6-oxohexanoic acid hydrotrifluoroacetate] (H-[X3][Aad][Thr(3ξ)](Bn)[ξTHIQ1CO(6-Me)]D-aldehyde), in that order: 2.29 µM, 14 and 33.1 µM.
Consider `CC(=O)N1c2ccccc2C[C@H]1C(=O)N[C@@H](CCCC(=O)O)C(=O)NCC(=O)N1CCc2cc(C)ccc2[C@H]1C(=O)N[C@H](C=O)CC(=O)O` [Compound 7, (S)-5-((S)-1-acetylindoline-2-carboxamido)-6-((2-((S)-1-(((S)-1-carboxy-3-oxopropan-2-yl)carbamoyl)-6-methyl-3,4-dihydroisoquinolin-2(1H)-yl)-2-oxoethyl)amino)-6-oxohexanoic acid], for which the Ki at human caspase-2 (setting [1]) was 0.0295 µM; on human caspase-3 (setting [2]), > 100 µM. Besides, at human caspase-2, the “Ki (Casp3) / Ki (Casp2)” value was determined as 3388.
Taken in the same sequence, the figures for `CC(=O)N1c2ccccc2C[C@H]1C(=O)N[C@@H](CCCC(=O)O)C(=O)N[C@H](C(=O)N1CCc2cc(C)ccc2[C@H]1C(=O)N[C@H](C=O)CC(=O)O)[C@H](C)OCc1ccccc1` [Compound 8, (S)-5-((S)-1-acetylindoline-2-carboxamido)-6-(((2S,3S)-3-(benzyloxy)-1-((S)-1-(((S)-1-carboxy-3-oxopropan-2-yl)carbamoyl)-6-methyl-3,4-dihydroisoquinolin-2(1H)-yl)-1-oxobutan-2-yl)amino)-6-oxohexanoic acid] were 6.03 µM, > 100 µM and 17.
Taken in the same sequence, the figures for `CC(=O)N1c2ccccc2C[C@H]1C(=O)N[C@@H](CCCC(=O)O)C(=O)N[C@H](C(=O)N1CCc2cc(C)ccc2[C@H]1C(=O)N[C@H](C=O)CC(=O)O)C(C)C` [Compound 9, (S)-5-((S)-1-acetylindoline-2-carboxamido)-6-(((S)-1-((S)-1-(((S)-1-carboxy-3-oxopropan-2-yl)carbamoyl)-6-methyl-3,4-dihydroisoquinolin-2(1H)-yl)-3-methyl-1-oxobutan-2-yl)amino)-6-oxohexanoic acid] were 0.38 µM, > 100 µM and 263.
Taken in the same sequence, the figures for `CC(=O)N1c2ccccc2C[C@H]1C(=O)N[C@@H](CCCC(=O)O)C(=O)N[C@H](C(=O)N1CCc2cc(C)ccc2[C@H]1C(=O)N[C@H](C=O)CC(=O)O)C(C)(C)C` [Compound 10, (S)-5-((S)-1-acetylindoline-2-carboxamido)-6-(((S)-1-((S)-1-(((S)-1-carboxy-3-oxopropan-2-yl)carbamoyl)-6-methyl-3,4-dihydroisoquinolin-2(1H)-yl)-3,3-dimethyl-1-oxobutan-2-yl)amino)-6-oxohexanoic acid] were 2.14 µM, > 100 µM and 47.
Consider `Cc1ccc2c(c1)CCN(C(=O)[C@@H](NC(=O)[C@H](CCCC(=O)O)NC(=O)[C@@H]1Cc3ccccc3N1)C(C)(C)C)C2C(=O)N[C@H](C=O)CC(=O)O` (stereo partly drawn) [Compound 11, (S)-6-(((S)-1-((S)-1-(((S)-1-carboxy-3-oxopropan-2-yl)carbamoyl)-6-methyl-3,4-dihydroisoquinolin-2(1H)-yl)-3,3-dimethyl-1-oxobutan-2-yl)amino)-5-((S)-indoline-2-carboxamido)-6-oxohexanoic acid hydrotrifluoroacetate] (H-[X3][Aad][Tle][ξTHIQ1CO(6-Me)]D-aldehyde), for which, on human caspase-2, the Ki is 4.17 µM and the “Ki (Casp3) / Ki (Casp2)” value was found to be 24. Also, on human caspase-3, the Ki is > 100 µM.

The values above are taken from patent US20250188123A1, “PROTEASE INHIBITORS” (Regents of the University of Minnesota, priority 2022, published 2025).
